ChEMBL document CHEMBL1201862, “PubChem BioAssay data set” (2004)
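These data come from cells grown in 96-well plates and exposed to compound for 48 hours at five concentrations. GI50 marks 50% less growth.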 Activity calls are given as the source filed them. No stated cut-off is given here; in the data, active = GI50 up to about 1.1 µM and inactive = higher.

Key:
Experiment in all cases: inhibition of tumour cell growth, NCI panel, 48 h
[1] = system: A549
[2] = system: CAKI-1
[3] = system: HL-60
[4] = system: HOP-92
[5] = system: HT-29
[6] = system: K562
[7] = system: KM12
[8] = system: LOX IMVI
[9] = system: Malme-3M
[10] = system: OVCAR-8
[11] = system: RPMI-8226
[12] = system: SF-295
[13] = system: SK-MEL-5
[14] = system: SK-OV-3
[15] = system: SR
[16] = system: UO-31
[17] = system: COLO 205

Measured: GI50

CN(C)c1n/c(=N/c2ncn[nH]2)ss1
inactive: [1] > 100 µM | [2] > 100 µM | [3] > 100 µM | [4] > 100 µM | [5] > 100 µM | [6] > 100 µM | [7] > 100 µM | [8] > 100 µM | [9] > 100 µM | [10] > 100 µM | [11] > 100 µM | [12] > 100 µM | [13] > 100 µM | [14] > 100 µM | [15] > 100 µM | [16] > 100 µM

O=C(O)c1ccc(C2COc3ccc(Cl)cc3C2)cc1 (stereo unspecified)
inactive: [1] > 100 µM | [2] > 100 µM | [17] > 100 µM | [3] > 100 µM | [4] > 100 µM | [5] > 100 µM | [6] > 100 µM | [7] > 100 µM | [8] > 100 µM | [9] > 100 µM | [10] > 100 µM | [11] > 100 µM | [12] > 100 µM | [13] > 100 µM | [14] > 100 µM | [15] > 100 µM | [16] > 100 µM

CN(C)CCNC(=O)c1cccc2ncc(-c3ccccc3)nc12
inactive: [1] 6.9 µM | [2] 6.58 µM | [17] 4.11 µM | [3] 14.4 µM | [4] 18.7 µM | [5] 6.17 µM | [6] 9.02 µM | [7] 11.8 µM | [8] 7.66 µM | [9] 13 µM | [10] 7.52 µM | [12] 14.2 µM | [13] 11.5 µM | [14] 16.4 µM | [15] 1.9 µM | [16] 8.89 µM

CCOP1(=O)C=C(C)C(Cl)=C(C)C1 (stereo unspecified)
inactive: [1] 21.1 µM | [17] 12 µM | [3] 19.1 µM | [4] 19.6 µM | [5] 24.5 µM | [6] 23.4 µM | [7] 15.8 µM | [8] 20.4 µM | [10] 30 µM | [11] 18.9 µM | [12] 47.1 µM | [13] 23.1 µM | [14] 60.3 µM | [15] 27.2 µM | [16] 35.3 µM

COc1ccc(C(N)=O)cc1/N=N/N(C)C
inactive: [1] > 100 µM | [2] > 100 µM | [17] > 100 µM | [3] > 100 µM | [4] > 100 µM | [5] > 100 µM | [6] > 100 µM | [7] > 100 µM | [8] > 100 µM | [9] > 100 µM | [10] 78.3 µM | [11] > 100 µM | [12] > 100 µM | [13] > 100 µM | [14] > 100 µM | [15] 39.8 µM | [16] > 100 µM

CCC1(c2ccncc2)CCC(=O)NC1=O (stereo unspecified) [ROGLETIMIDE]
inactive: [1] > 100 µM | [2] > 100 µM | [17] > 100 µM | [3] > 100 µM | [4] 52.4 µM | [5] > 100 µM | [6] > 100 µM | [7] > 100 µM | [8] > 100 µM | [9] > 100 µM | [10] > 100 µM | [11] > 100 µM | [12] > 100 µM | [13] > 100 µM | [14] > 100 µM | [15] > 100 µM | [16] > 100 µM

CN1CCC(=O)/C(=C/c2ccccc2)C1
inactive: [1] 17.7 µM | [2] 17.9 µM | [17] 13.7 µM | [3] 9.35 µM | [4] 17.5 µM | [5] 3.32 µM | [6] 5.24 µM | [7] 2.23 µM | [8] 5.58 µM | [9] 19.5 µM | [10] 22 µM | [11] 2.86 µM | [12] 15.4 µM | [13] 17.9 µM | [14] 20.2 µM | [15] 2.91 µM | [16] 17.9 µM

CCC(=O)N1C(=S)SC[C@H]1C(=O)OC
inactive: [1] > 100 µM | [2] > 100 µM | [17] > 100 µM | [3] > 100 µM | [4] > 100 µM | [5] > 100 µM | [6] > 100 µM | [7] > 100 µM | [8] > 100 µM | [9] > 100 µM | [10] > 100 µM | [12] > 100 µM | [13] > 100 µM | [14] > 100 µM | [15] > 100 µM | [16] > 100 µM

O=C(CCn1[nH]c(=O)c(Cl)c(Cl)c1=O)NOCCCc1ccccc1
inactive: [1] > 100 µM | [2] > 100 µM | [3] > 100 µM | [4] > 100 µM | [5] > 100 µM | [6] > 100 µM | [7] > 100 µM | [8] > 100 µM | [9] > 100 µM | [10] > 100 µM | [11] > 100 µM | [12] > 100 µM | [13] > 100 µM | [15] > 100 µM | [16] > 100 µM
